Assay [1] has as its system Plasmodium falciparum. As to the kind of experiment: Antimalarial activity against Plasmodium falciparum 3D7 infected in O-positive human erythrocytes assessed as inhibition of parasite lactate dehydrogenase after 72 hrs by pLDH method. To be noted: 3D7, 72 h. The assay is classed as functional, organism-based.
The test system of assay [2] is Plasmodium falciparum. Briefly: Ratio of compound IC50 to APM IC50 for Plasmodium falciparum 3D7. Format: functional.
The subject of another assay is Cryptosporidium parvum. Briefly: Antimicrobial activity against Cryptosporidium parvum infected in HCT8 cells assessed as parasite count after 72 to 120 hrs. Particulars: HCT-8. Format: functional, organism-based.
Assay [3] has as its system Plasmodium falciparum. Briefly: Antimicrobial activity against Plasmodium falciparum up to 128 uM. The assay is classed as functional, organism-based.
Assay [4] has as its system Plasmodium falciparum. As to the kind of experiment: Antimicrobial activity against Plasmodium falciparum. The assay is classed as functional, organism-based.

We go through 48 compounds from ChEMBL document CHEMBL1833836, “Synthesis and evaluation of phosphoramidate and phosphorothioamidate analogues of amiprophos methyl as potential antimalarial agents” (Bioorg Med Chem Lett, 2011).

The source made the active and inactive calls. No cut-off for these calls is given here.

Broadly, the IC50 is the concentration at which inhibition is half-maximal. For the compound `CCOP(=O)(NC1CCC1)Oc1ccc(C(F)(F)F)cc1` (stereo unspecified), the IC50 with Plasmodium falciparum [1] was found to be 45 µM. Besides, in the assay on Plasmodium falciparum [2], the “Ratio IC50” value was 20.

In the case of `CCOP(=O)(NC(C)C)Oc1cccc(C(F)(F)F)c1` (stereo unspecified), the half-inhibitory concentration (IC50) in the assay with Plasmodium falciparum [1] was 50 µM. In addition, in the assay with Plasmodium falciparum [2], the “Ratio IC50” value came out at 20.

With `CCOP(=O)(Oc1ccc(C(F)(F)F)cc1)N1CCOCC1` (stereo unspecified), the 50% inhibitory concentration (IC50) with Plasmodium falciparum [1] came out at 98 µM. In the assay with Plasmodium falciparum [2], the “Ratio IC50” value is given as 20.

As to `CCOP(=O)(NC1CCCC1)Oc1ccc(Br)cc1` (stereo unspecified), the IC50 in the assay on Plasmodium falciparum [1] amounted to 17 µM. In the assay with Plasmodium falciparum [2], the “Ratio IC50” value came out at 20.

With `CCCN(CCC)c1c([N+](=O)[O-])cc(S(N)(=O)=O)cc1[N+](=O)[O-]` [ORYZALIN], in the assay with Cryptosporidium parvum, the IC50 is 0.8 µM.

As to `CCOP(=O)(Oc1ccc(C(F)(F)F)cc1)N1CCCC1` (stereo unspecified), the concentration for half-maximal inhibition (IC50) in the assay on Plasmodium falciparum [1] was 56 µM. In the assay on Plasmodium falciparum [2], the “Ratio IC50” value is listed as 20.

For the compound `CCCCNP(=O)(OCC)Oc1ccc(C)cc1[N+](=O)[O-]` (stereo unspecified), the 50% inhibitory concentration (IC50) with Plasmodium falciparum [1] is 28 µM. In the assay on Plasmodium falciparum [2], the “Ratio IC50” value is recorded as 20.

On to `CCOP(=O)(NC(C)C)Oc1ccccc1` (stereo unspecified), for which the IC50 with Plasmodium falciparum [1] is over 128 µM. Besides, the “Ratio IC50” value in the assay with Plasmodium falciparum [2] came out at 20.

For `CCOP(=O)(Oc1ccc(C(F)(F)F)cc1)N1CCCCC1` (stereo unspecified), the IC50 in the assay on Plasmodium falciparum [1] is 84 µM. In addition, the “Ratio IC50” value with Plasmodium falciparum [2] is listed as 20.

`CCCCCCCNP(=O)(OCC)Oc1ccc(C(F)(F)F)cc1` (stereo unspecified): the IC50 with Plasmodium falciparum [1] stood at 44 µM. Moreover, the “Ratio IC50” value in the assay on Plasmodium falciparum [2] is reported as 20.

Take `CC(C)OC(=O)Nc1cccc(Cl)c1`: in the assay with Plasmodium falciparum [3], the inhibition entry was “inactive”.

On to `O=[N+]([O-])c1cc([N+](=O)[O-])c(N2CCC(N3CCCC3)CC2)c(C(F)(F)F)c1`, for which inhibition in the assay with Plasmodium falciparum [4] was half-maximal at 0.44 µM (IC50).

In the case of `CCOP(=O)(NC(C)C)Oc1ccc(C)cc1OC` (stereo unspecified), the IC50 with Plasmodium falciparum [1] stood at 128 µM. Besides, the “Ratio IC50” value with Plasmodium falciparum [2] is 20.

Take `CCOP(=O)(Oc1ccc(C(F)(F)F)cc1)N(CC)CC` (stereo unspecified): the IC50 with Plasmodium falciparum [1] was 48 µM. In the assay with Plasmodium falciparum [2], the “Ratio IC50” value is recorded as 20.

In the case of `CCOP(=O)(Nc1ccc(C)cc1Cl)Oc1ccc(C)cc1Cl` (stereo unspecified), in the assay on Plasmodium falciparum [1], the concentration for half-maximal inhibition (IC50) was determined as 102 µM. Further, the “Ratio IC50” value in the assay with Plasmodium falciparum [2] is listed as 20.

As to `CCOP(=O)(NC1CCCC1)Oc1ccc(C)cc1[N+](=O)[O-]` (stereo unspecified), the IC50 in the assay on Plasmodium falciparum [1] is 47 µM. The “Ratio IC50” value in the assay on Plasmodium falciparum [2] came out at 20.

`CCOP(=O)(NC1CCCC1)Oc1ccc(C(F)(F)F)cc1` (stereo unspecified): the IC50 in the assay on Plasmodium falciparum [1] came to 26 µM. Further, the “Ratio IC50” value in the assay on Plasmodium falciparum [2] is 20.

Consider `CCOP(=O)(NC(C)C)Oc1ccc(C)cc1[N+](=O)[O-]` (stereo unspecified), for which the IC50 in the assay with Plasmodium falciparum [1] was 126 µM. For the same compound, the “Ratio IC50” value in the assay with Plasmodium falciparum [2] came to 20.

Regarding `CCCNP(=O)(OCC)Oc1cc(C)ccc1[N+](=O)[O-]` (stereo unspecified), the IC50 in the assay on Plasmodium falciparum [1] is 102 µM. In addition, the “Ratio IC50” value in the assay with Plasmodium falciparum [2] amounted to 20.

As to `CCN(CC)CCN(CC)c1c([N+](=O)[O-])cc([N+](=O)[O-])cc1C(F)(F)F`, the 50% inhibitory concentration (IC50) with Plasmodium falciparum [4] was determined as 0.44 µM.

For the compound `CCCN(CCC)c1c([N+](=O)[O-])cc(C(F)(F)F)cc1[N+](=O)[O-]` [TRIFLURALIN], the figures for the IC50 with Plasmodium falciparum [4] and with Cryptosporidium parvum were 2.9 µM and 0.75 µM, respectively.

In the case of `COP(=S)(NC(C)C)Oc1ccc(C)cc1[N+](=O)[O-]` (stereo unspecified) [AMIPROPHOS METHYL], in the assay with Plasmodium falciparum [1], the IC50 stood at 4 µM.

Take `CCOP(=O)(NC(C)C)Oc1ccc([N+](=O)[O-])cc1C` (stereo unspecified): the IC50 with Plasmodium falciparum [1] is 128 µM. The “Ratio IC50” value in the assay on Plasmodium falciparum [2] came to 20.

For `CCCCCNP(=O)(OCC)Oc1ccc(C)cc1[N+](=O)[O-]` (stereo unspecified), the IC50 with Plasmodium falciparum [1] worked out at 51 µM. The “Ratio IC50” value with Plasmodium falciparum [2] is listed as 20.

Take `CCOP(=O)(NC1CCCCC1)Oc1ccc(C(F)(F)F)cc1` (stereo unspecified): the IC50 in the assay with Plasmodium falciparum [1] worked out at 43 µM. Besides, the “Ratio IC50” value in the assay on Plasmodium falciparum [2] was 20.

Consider `CCOP(=O)(NC(C)C)Oc1cc(C)ccc1[N+](=O)[O-]` (stereo unspecified), for which the 50% inhibitory concentration (IC50) in the assay with Plasmodium falciparum [1] is over 128 µM. Besides, the “Ratio IC50” value with Plasmodium falciparum [2] stood at 20.

For the compound `CCOP(=O)(NC(C)C)Oc1ccc(C)cc1Br` (stereo unspecified), in the assay with Plasmodium falciparum [1], the IC50 was 39 µM. The “Ratio IC50” value with Plasmodium falciparum [2] is 20.

As for `CCOP(=O)(NC(C)C)Oc1ccc(C)cc1Cl` (stereo unspecified), the IC50 with Plasmodium falciparum [1] came to 39 µM. Also, in the assay on Plasmodium falciparum [2], the “Ratio IC50” value is on record as 20.

Take `CCCCCNP(=S)(OCC)Oc1ccc([N+](=O)[O-])cc1C` (stereo unspecified): the IC50 with Plasmodium falciparum [1] turned out to be 6.9 µM.

Turning to `CCOP(=O)(NCC(C)C)Oc1cc(C)ccc1[N+](=O)[O-]` (stereo unspecified), in the assay with Plasmodium falciparum [1], the half-maximal inhibitory concentration (IC50) was over 128 µM. Moreover, the “Ratio IC50” value in the assay with Plasmodium falciparum [2] is 20.

In the case of `CCOP(=O)(NC(C)C)Oc1cccc([N+](=O)[O-])c1C` (stereo unspecified), in the assay with Plasmodium falciparum [1], the IC50 was determined as 128 µM. In addition, the “Ratio IC50” value with Plasmodium falciparum [2] came to 20.

Regarding `CCOP(=O)(NC(C)C)Oc1ccc2ccccc2c1` (stereo unspecified), in the assay with Plasmodium falciparum [1], the IC50 was 72 µM. Also, the “Ratio IC50” value in the assay on Plasmodium falciparum [2] is on record as 20.

For `CCOP(=O)(NCC(C)C)Oc1ccc(C(F)(F)F)cc1` (racemic), the IC50 with Plasmodium falciparum [1] came to 40 µM. The “Ratio IC50” value in the assay on Plasmodium falciparum [2] is given as 20.

`CCOP(=O)(NC(C)C)Oc1ccc([N+](=O)[O-])c(C)c1` (stereo unspecified): the concentration for half-maximal inhibition (IC50) with Plasmodium falciparum [1] stood at 79 µM. Besides, in the assay on Plasmodium falciparum [2], the “Ratio IC50” value came to 20.

With `CCOP(=O)(NC(C)C)Oc1ccc(C(F)(F)F)cc1` (stereo unspecified), the concentration for half-maximal inhibition (IC50) with Plasmodium falciparum [1] came out at 50 µM. Moreover, in the assay with Plasmodium falciparum [2], the “Ratio IC50” value is 20.

On to `CCOP(NC1CCCC1)Oc1ccc(Br)cc1` (stereo unspecified), for which the half-inhibitory concentration (IC50) with Plasmodium falciparum [1] was found to be 128 µM.

As to `CCOP(=O)(NC(C)C)Oc1ccc(C)cc1C#N` (stereo unspecified), in the assay on Plasmodium falciparum [1], the IC50 came to 128 µM. The “Ratio IC50” value in the assay on Plasmodium falciparum [2] is 20.

On to `CCOP(=O)(NC(C)C)Oc1ccc2ccccc2c1[N+](=O)[O-]` (stereo unspecified), for which, in the assay with Plasmodium falciparum [1], the IC50 is 87 µM. The “Ratio IC50” value with Plasmodium falciparum [2] was 20.

As to `CCOP(=O)(NCC(C)C)Oc1ccc(C)cc1[N+](=O)[O-]` (stereo unspecified), the IC50 with Plasmodium falciparum [1] worked out at 75 µM. Also, in the assay on Plasmodium falciparum [2], the “Ratio IC50” value is listed as 20.

Consider `CCCCCNP(=S)(OCC)Oc1ccc(C(F)(F)F)cc1` (stereo unspecified), for which the IC50 with Plasmodium falciparum [1] was found to be 4.5 µM.

As for `CCOP(=S)(NC1CCCC1)Oc1ccc(Br)cc1` (stereo unspecified), in the assay on Plasmodium falciparum [1], the IC50 worked out at 23 µM.

For `CCOP(=S)(NC1CCCC1)Oc1ccc(C(F)(F)F)cc1` (stereo unspecified), the IC50 in the assay with Plasmodium falciparum [1] came to 8.6 µM. Also, in the assay with Plasmodium falciparum [2], the “Ratio IC50” value stood at 20.

As for `CCOP(N)(=O)Oc1ccc(C(F)(F)F)cc1` (stereo unspecified), the IC50 in the assay with Plasmodium falciparum [1] worked out at 79 µM. The “Ratio IC50” value with Plasmodium falciparum [2] is reported as 20.

`CCCNP(=O)(OCC)Oc1ccc(C)cc1[N+](=O)[O-]` (stereo unspecified): the IC50 in the assay with Plasmodium falciparum [1] was over 128 µM. In addition, the “Ratio IC50” value in the assay on Plasmodium falciparum [2] was 20.

On to `CCOP(=S)(NC1CCCC1)Oc1ccc([N+](=O)[O-])cc1C` (stereo unspecified), for which, in the assay on Plasmodium falciparum [1], the IC50 was determined as 1.6 µM.

On to `CCOP(=O)(NC(C)C)Oc1ccccc1C(F)(F)F` (stereo unspecified), for which the concentration for half-maximal inhibition (IC50) in the assay on Plasmodium falciparum [1] came out at 87 µM. The “Ratio IC50” value in the assay with Plasmodium falciparum [2] turned out to be 20.

Turning to `CCOP(=O)(NC(C)C)Oc1cc([N+](=O)[O-])ccc1C` (stereo unspecified), in the assay on Plasmodium falciparum [1], the half-inhibitory concentration (IC50) stood at 128 µM. The “Ratio IC50” value in the assay with Plasmodium falciparum [2] is listed as 20.

Turning to `CCCCNP(=O)(OCC)Oc1ccc(C(F)(F)F)cc1` (stereo unspecified), the IC50 in the assay on Plasmodium falciparum [1] is 32 µM. In addition, in the assay with Plasmodium falciparum [2], the “Ratio IC50” value was found to be 20.
